We go through one molecule from US12398155B2, “Thienopyridinone compounds” (Janssen Pharmaceutica NV, priority 2019, dated 2025).

Assay [1] deals with T1, human FGFR3 V555L enzyme (cytoplasmic domain carrying V555L mutation) (Homo sapiens, UniProt P22607, V555L).
T1 construct: cytoplasmic domain carrying V555L mutation, from Cama Biosciences; purchased Cama Biosciences (so in the source)
Briefly: FGFR3 V555L mobility shift assay (enzymatic assay). The note with it: 40 μM ATP, 50 minutes at 30° C.; read-out: FGFR3 V555L Caliper. The class given is biochemical. On the procedure: FGFR3 V555L Mobility Shift Assay (Enzymatic Assay)
(§1) In a final reaction volume of 25 μL, 0.04 ng/μL human FGFR3 V555L enzyme (cytoplasmic domain carrying V555L mutation, from Cama Biosciences) was incubated with 40 μM ATP, 1 μM FL-peptide 30 substrate and 250 nL of testing compound (1% DMSO final) in assay buffer (100 mM HEPES pH 7.4, 10 mM MgCl2, 0.003% Brij35, 1 mM DTT). After incubation for 50 minutes at 30° C. the reaction was stopped with 10 μL of 0.5M EDTA pH 8.0, and then 25 μL of reaction mixture was transferred to reading plate and measured on Caliper EZ reader II. The substrate-product conversion rate was used as raw data for normalization and concentration-response curve (10 dose points with 4× serial dilution, starting with 10 μM) was plotted using Prism to calculate IC50 (M), pIC50 (−log IC50) and HillSlope value.

For assay [2], the target named is T2, human FGFR3 V555M enzyme (cytoplasmic domain carrying V555M mutation) (Homo sapiens, UniProt P22607, V555M).
T2 construct: cytoplasmic domain carrying V555M mutation, from Cama Biosciences; purchased Cama Biosciences (so in the source)
Briefly: FGFR3 V555M mobility shift assay (enzymatic assay). The class given is biochemical. The note with it: 30 μM ATP, 45 minutes at 30° C.; read-out: FGFR3 V555M Caliper. On the procedure: FGFR3 V555M Mobility Shift Assay (Enzymatic Assay)
as §1, with “FGFR3 V555M” for “FGFR3 V555L”, “carrying V555M” for “carrying V555L”, “with 30” for “with 40”, “for 45” for “for 50”

In assay [3] the target is T3, NIH/3T3 cells overexpressing FGFR3 V555M-TACC3 fusion protein (Homo sapiens, UniProt P22607, V555M, cells depend on it).
T3 construct: NIH/3T3 FGFR3 V555M-TACC3 CTG; other: 72-hr incubation, CellTiter Glo; fused on or other part: C-terminal part of TACC3 (coiled-coil) fused behind the FGFR3 kinase domain; Q9Y6A5 (Transforming acidic coiled-coil-containing protein 3)
Briefly: NIH/3T3 FGFR3 V555M-TACC3 cell proliferation assay. In kind it is cell-based. The note with it: 72-hr incubation, CellTiter Glo; read-out: NIH/3T3 FGFR3 V555M-TACC3 CTG. As to the method: NIH/3T3 FGFR3 V555M-TACC3 Cell Proliferation Assay
In day 1, 90 μL of cell suspension (NIH/3T3 cells overexpressing FGFR3 V555M-TACC3 fusion protein) (total 30,000 cells per well in growth medium (DMEM containing 1% Glutamax, 10% FBS and 1% Pen/Strep)) was seeded in a 96-well plate and then incubated overnight at 37° C. and 5% CO2. In day 2, 10 μL of growth medium containing 10-fold stock solution of testing compound was added into cell cultures (9 dose points with 4× serial dilution, starting with 10 μM, 0.1% DMSO final). After 72-hr incubation at 37° C. and 5% CO2, in day 5 a volume of 50 μL CellTiter Glo (CTG) reagent was added into cell-containing 96-well plate and the plate was incubated at room temperature for 10 minutes before RLUs (relative light unit) were measured on a microplate reader with luminescence detection module. The RLU value was normalized to survival % and concentration-response curve was plotted using Prism to calculate IC50 (M), pIC50 (−log IC50) and HillSlope value.
Background: In ATP-based viability assays light output follows the ATP content of the culture.

Assay [4] deals with NIH/3T3 cells overexpressing FGFR3 WT-TACC3 fusion protein. Briefly: NIH/3T3 FGFR3 WT-TACC3 cellular phospho-ERK assay (in vitro PD assay). The class given is cell-based. The note with it: Mus musculus, NIH3T3; 1-hr incubation, AlphaLISA p-ERK1/2; read-out: NIH/3T3 FGFR3 WT-TACC3 pERK. As to the method: NIH/3T3 FGFR3 WT-TACC3 Cellular Phospho-ERK Assay (In Vitro PD Assay)
50 μL of cell suspension (NIH/3T3 cells overexpressing FGFR3 WT-TACC3 fusion protein) (total 10,000 cells per well in growth medium (DMEM containing 1% Glutamax, 10% FBS and 1% Pen/Strep)) was seeded in a 384-well plate. After overnight incubation at 37° C. and 5% CO2, 5.5 μL of growth medium containing 10× testing compound was added into cell cultures (10 dose points with 4× serial dilution, starting with 10 μM, 0.1% DMSO final). After 1-hr incubation at 37° C. and 5% CO2, the medium was depleted and AlphaLISA SureFire Ultra p-ERKI1/2 (Thr202/Tyr204) Assay Kit (from PerkinElmer) was applied for phospho-ERK level detection according to the kit instructions. The RFUs (relative fluorescence units were measured on EnVision microplate reader (ex. 680 nm, em. 615 nm) and concentration-response curve was plotted using Prism to calculate IC50 (M), pIC50 (−log IC50) and HillSlope value.
(In general: In Alpha technology, singlet oxygen from a donor bead excites a nearby acceptor bead.)

The target in assay [5] is T4, human FGFR3 wild type enzyme (cytoplasmic domain) (Homo sapiens, UniProt P22607).
T4 construct: human FGFR3 wild type enzyme (cytoplasmic domain, from Cama Biosciences); purchased Cama Biosciences (so in the source)
Briefly: FGFR3 wild type mobility shift assay (enzymatic assay). In kind it is biochemical. The note with it: 75 μM ATP, 50 minutes at 30° C.; read-out: FGFR3 wild type Caliper. On the procedure: FGFR3 Wild Type Mobility Shift Assay (Enzymatic Assay)
as §1, with “wild type” for “V555L”, “domain,” for “domain carrying V555L mutation,”, “75” for “40”

T1 sequence (P22607 397-806 V555L limits assumed): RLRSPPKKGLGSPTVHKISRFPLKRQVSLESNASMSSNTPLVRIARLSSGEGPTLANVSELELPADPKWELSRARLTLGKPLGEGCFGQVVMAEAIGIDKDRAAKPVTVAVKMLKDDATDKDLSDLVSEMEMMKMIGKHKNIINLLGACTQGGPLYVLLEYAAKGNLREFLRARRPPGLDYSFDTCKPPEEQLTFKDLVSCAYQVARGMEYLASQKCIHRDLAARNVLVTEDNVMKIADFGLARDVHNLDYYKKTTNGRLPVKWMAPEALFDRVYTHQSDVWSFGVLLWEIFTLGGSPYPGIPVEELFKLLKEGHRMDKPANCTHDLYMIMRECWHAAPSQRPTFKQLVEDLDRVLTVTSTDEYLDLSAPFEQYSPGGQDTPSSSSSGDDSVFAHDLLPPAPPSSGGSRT
T4 sequence (P22607 397-806 limits assumed): as the sequence (P22607 397-806 V555L limits assumed) above, with L159V counted along it
T2 sequence (P22607 397-806 V555M limits assumed): as the sequence (P22607 397-806 V555L limits assumed) above, with L159M counted along it
T3 sequence (P22607 whole entry V555M, the tested form may be a part): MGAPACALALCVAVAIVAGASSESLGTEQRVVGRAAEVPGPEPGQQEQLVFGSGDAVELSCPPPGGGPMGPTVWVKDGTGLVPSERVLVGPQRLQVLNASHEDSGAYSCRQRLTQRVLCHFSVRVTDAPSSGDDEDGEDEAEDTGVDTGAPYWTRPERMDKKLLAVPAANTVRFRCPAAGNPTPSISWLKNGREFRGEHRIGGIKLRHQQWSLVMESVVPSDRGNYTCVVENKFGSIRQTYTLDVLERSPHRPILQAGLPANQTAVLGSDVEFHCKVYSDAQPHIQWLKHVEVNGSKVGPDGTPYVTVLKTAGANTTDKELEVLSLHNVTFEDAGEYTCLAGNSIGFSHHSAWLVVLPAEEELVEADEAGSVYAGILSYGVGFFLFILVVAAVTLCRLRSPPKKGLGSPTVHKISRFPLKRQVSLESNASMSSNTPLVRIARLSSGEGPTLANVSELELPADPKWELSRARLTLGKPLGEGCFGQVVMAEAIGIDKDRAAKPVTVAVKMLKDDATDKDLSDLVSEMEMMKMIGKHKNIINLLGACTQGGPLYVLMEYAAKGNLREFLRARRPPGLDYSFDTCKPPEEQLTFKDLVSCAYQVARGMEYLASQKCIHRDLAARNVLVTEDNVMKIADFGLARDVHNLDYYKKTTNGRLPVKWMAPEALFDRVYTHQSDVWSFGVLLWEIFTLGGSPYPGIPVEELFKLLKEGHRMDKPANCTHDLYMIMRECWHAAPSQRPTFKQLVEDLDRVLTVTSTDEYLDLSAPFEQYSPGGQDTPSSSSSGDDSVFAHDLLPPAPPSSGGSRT

Consider `C[C@H](Nc1c(-c2nc3cnc(N4CCOCC4)cc3[nH]2)c(=O)[nH]c2ccsc12)c1ncccn1` [Compound 2, (S)-6-(6-Morpholino-1H-imidazo[4,5-c]pyridin-2-yl)-7-((1-(pyrimidin-2-yl)ethyl)amino)thieno[3,2-b]pyridin-5(4H)-one], for which the IC50 is 320 pM in assay [1], 230 pM in assay [2], 1090 pM in assay [4] and 310 pM in assay [5]. The GI50 in assay [3] was 1240 pM.
